A word on the stoichiometry N: it is the number of molecules, sites or subunits per partner or assembly.

Test [1] deals with T1, AJLec (Anthopleura japonica, UniProt A0A2Z5WLM1).
T1 construct: mature 164 residues, 18,491 Da, precursor 186 residues; N-terminal pyroglutamate; disulfide-linked homodimer (36 kDa); Ca2+ dependent
T1 sequence (A0A2Z5WLM1 23-186): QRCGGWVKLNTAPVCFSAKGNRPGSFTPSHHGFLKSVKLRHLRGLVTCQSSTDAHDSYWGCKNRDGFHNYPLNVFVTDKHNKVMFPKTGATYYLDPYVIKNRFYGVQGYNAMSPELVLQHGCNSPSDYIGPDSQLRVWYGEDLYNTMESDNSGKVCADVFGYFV
As to the kind of experiment: hemagglutination inhibition, rabbit erythrocytes. Type of test: cell-based. The conditions noted are these: 2.4–2.6 μg/mL AJLec, TBS-Ca2+. An excerpt:
hemagglutination inhibition, rabbit erythrocytes on AJLec

The target in test [2] is AJLec (Anthopleura japonica Lectin) (Anthopleura japonica). In words: crystal structure; AJLec with 100 mM lactose and 1 mM CaCl2 in TBS; vapor diffusion, 200 mM NaCl, 100 mM HEPES pH 7.5, 30% PEG 3350, 20 °C; two chains per asymmetric unit.

Values after ≈ are worked out from the molar mass of the structure shown.

For the molecule `OC[C@H]1OC(O)[C@H](O)[C@@H](O)[C@@H]1O` (stereo partly drawn) [D-Glucose], the “Minimum inhibitory concentration” value in test [1] was more than 25000 µM.
Still for that read-out and setting: the same measure for `OC[C@H]1OC(O)[C@@H](O)[C@@H](O)[C@@H]1O` (stereo partly drawn) [D-Mannose]: more than 25000 µM.
As to `OC[C@H]1OC(O)[C@H](O)[C@@H](O)[C@H]1O` (some centres unmarked) [Galactose], the “Minimum inhibitory concentration” value in test [1] was 50 µM (≈ 9.01 µg/mL).
On the same count and under the same terms, in the case of `C[C@@H]1OC(O)[C@@H](O)[C@H](O)[C@@H]1O` (stereo partly drawn) [L-Fucose] it was 3000 µM (≈ 492 µg/mL); in that of `C[C@@H]1OC(O)[C@H](O)[C@H](O)[C@H]1O` (stereo partly drawn) [L-Rhamnose], 3000 µM (≈ 492 µg/mL); in that of `OC[C@H]1O[C@@H](O[C@H]2[C@H](O)[C@@H](O)C(O)O[C@@H]2CO)[C@H](O)[C@@H](O)[C@H]1O` (some centres unmarked) [Lactose], 100 µM (≈ 34.2 µg/mL).
On the same count and under the same terms, the same measure for `OC[C@H]1O[C@@H](O[C@@H]2[C@@H](CO)OC(O)(CO)[C@H]2O)[C@H](O)[C@@H](O)[C@H]1O` (some centres unmarked) [Lactulose]: 100 µM (≈ 34.2 µg/mL); for `OC[C@H]1O[C@H](O[C@H]2[C@H](O)[C@@H](O)C(O)O[C@@H]2CO)[C@H](O)[C@@H](O)[C@@H]1O` (some centres unmarked) [Maltose]: 6300 µM (≈ 2160 µg/mL); for `CO[C@H]1O[C@H](CO)[C@H](O)[C@H](O)[C@H]1O` [Me-α-Gal]: 800 µM (≈ 155 µg/mL).
The same measure, in the same setting: the same measure for `CO[C@H]1O[C@H](CO)[C@@H](O)[C@H](O)[C@H]1O` [Me-α-Glc]: more than 25000 µM; for `CO[C@H]1O[C@H](CO)[C@@H](O)[C@H](O)[C@@H]1O` [Me-α-Man]: more than 25000 µM; for `CO[C@@H]1O[C@H](CO)[C@H](O)[C@H](O)[C@H]1O` [Me-β-Gal]: 400 µM (≈ 77.7 µg/mL).
As to `OC[C@H]1O[C@H](OC[C@H]2OC(O)[C@H](O)[C@@H](O)[C@@H]2O)[C@H](O)[C@@H](O)[C@H]1O` (some centres unmarked) [Melibiose], the “Minimum inhibitory concentration” value in test [1] is 800 µM (≈ 274 µg/mL).
The same measure, in the same setting: the same measure for `CC(=O)N[C@H]1C(O)O[C@H](CO)[C@H](O)[C@@H]1O` (some centres unmarked) [N-Acetylgalactosamine]: 25000 µM (≈ 5530 µg/mL).
Take `OC[C@H]1O[C@H](OC[C@H]2OC(O)(CO)[C@@H](O)[C@@H]2O)[C@H](O)[C@@H](O)[C@@H]1O` (some centres unmarked) [Palatinose]: the “Minimum inhibitory concentration” value in test [1] was found to be 3100 µM (≈ 1060 µg/mL).
Turning to `OC[C@H]1O[C@H](OC[C@H]2O[C@H](O[C@]3(CO)O[C@H](CO)[C@@H](O)[C@@H]3O)[C@H](O)[C@@H](O)[C@@H]2O)[C@H](O)[C@@H](O)[C@H]1O` [Raffinose], in test [1], the “Minimum inhibitory concentration” value came to 800 µM (≈ 404 µg/mL).
The molecule “AJLec (Anthopleura japonica Lectin) (natural protein)” registered a stoichiometry N in test [2] of 2.

Values taken from publication PMC6070535, “Identification, Characterization, and X-ray Crystallographic Analysis of a Novel Type of Lectin AJLec from the Sea Anemone Anthopleura japonica” (Scientific Reports, 2018).
